Data taken from US20260306492A1 (BRISTOL-MYERS SQUIBB COMPANY, priority 2023, published 2026).
Read-outs that look alike come from different tables or passages of the source.

Tests used:
[1] = Thorough QT (TQT) study in healthy adults; assay type: in vivo, human; settings: for ΔΔQTcF, highest upper limit of 2-sided 90% CI: Day 1 and Day 4
Procedure: Pharmacokinetic analysis was performed on the plasma concentrations of each participant.

[2] = Milvexian pharmacokinetics in humans (healthy volunteers / terminal half-life)
Description: (AXIOMATIC-TKR Phase II). […] “Half-life (t1/2),” as used herein, refers to apparent terminal elimination half-life having a mean value calculated using formula t1/2=loge2/λz, where λz is the apparent terminal elimination rate-constant estimated by linear regression using the terminal log-linear phase of the logarithmic (log) transformed concentration vs time data.

[3] = Milvexian clinical program, adverse drug reactions; assay type: in vivo, human; settings: milvexian clinical development program
Description: […]. […] […]. Milvexian in the two Phase II clinical trials (AXIOMATIC-TKR and AXIOMATIC-SSP) focused on different patient populations.

[4] = tested on: thrombin generation; assay: Thrombin Generation Assay (TGA), AXIOMATIC-TKR Phase II; assay type: in vivo, human; settings: for ETP Lag Time, measured value, median / ETP Peak Height, measured value, mean / ETP Lag Time, measured value, mean / ETP Peak Height, measured value, median: enoxaparin 40 mg QD sc
Description: As used herein, “Thrombin Generation Assay (TGA)” is a global coagulation assay that evaluates the thrombogenic capacity of a plasma sample and has been proposed that it may better reflect prothrombotic or hemorrhagic states than conventional clotting assays. In the traditional TGA, coagulation of citrated plasma is initiated through the extrinsic pathway by adding tissue factor, phospholipids, and calcium. For this study, in the in-vitro thrombin generation assay (TGA) using human platelet-rich plasma, and a kaolin slurry was used instead to initiate coagulation through the contact activation pathway. Thrombin generation is continuously monitored through the product released by cleavage of a thrombin-specific fluorogenic substrate. The generated thrombogram is used to determine several relevant parameters, including endogenous thrombin potential, defined as the area under the thrombin concentration vs. time curve. […]
(§1) PD analyses were performed on the PD analysis set, defined as subjects who had at least one valid blood sample drawn for PD. Descriptive statistics (N, mean, SD, median, range, CV (%) and IQ range) were used to summarize PD response at each nominal sampling time point by treatment group. Changes from baseline were summarized when applicable. PD response outside of limit of quantitation were not to be imputed and were to be noted in the summary statistics.

[5] = Steady-state plasma pharmacokinetics of milvexian 100 mg BID
[6] = tested on: participants undergoing primary unilateral elective TKR surgery; assay: Total venous thromboembolism (VTE) in TKR patients, AXIOMATIC-TKR; assay type: in vivo, human
[7] = tested on: participants with non-lacunar, non-cardioembolic ischemic stroke or TIA; assay: AXIOMATIC-SSP Phase 2, safety (bleeding, adverse events)
[8] = tested on: participants with non-lacunar, non-cardioembolic ischemic stroke or TIA; assay: AXIOMATIC-SSP Phase 2, efficacy (ischemic stroke / covert brain infarction); assay type: in vivo, human
[9] = Bleeding in AXIOMATIC-TKR and AXIOMATIC-SSP; assay type: in vivo, human
Description: […]. […] […]. […] […].

[10] = Milvexian plasma pharmacokinetics, AXIOMATIC-TKR Phase II
Description: (AXIOMATIC-TKR Phase II). […] Assessment of the dose-response for the occurrence of any bleeding was a secondary objective.

[11] = tested on: intrinsic and final common pathways of the coagulation cascade (aPTT); assay: Activated partial thromboplastin time (aPTT), AXIOMATIC-TKR Phase II; assay type: in vivo, human; settings: for aPTT, measured value, median: enoxaparin 40 mg QD sc
Description: As used herein, the term “activated partial thromboplastin time (aPTT)” refers to a measure of the intrinsic and final common pathways of the coagulation cascade. It represents the time, in seconds, for plasma to clot after addition of phospholipid, an intrinsic pathway activator, and calcium. […] The term ‘partial’ means phospholipid is present but no tissue factor. The normal and reference ranges vary depending on reagent and instrument combinations, particularly with the phospholipid composition.
In some embodiments, aPTT is measured as follows: Plasma samples are incubated with Actin FS aPTT assay reagent containing a standard amount of phospholipid and contact activator (ellagic acid) which activates the intrinsic coagulation pathway. After incubating for 3 minutes, calcium chloride is added to initiate coagulation and formation of a fibrin clot is measured optically. The time to clot formation (measured in seconds) is reported as the Activated Partial Thromboplastin Time (aPTT).
(§2) Assessment of the dose-response for the occurrence of any bleeding was a secondary objective.
as §1

[12] = cited from earlier work; for VTE prevention versus enoxaparin 40 mg once daily: orthopedic surgery, historical Phase 3; for bleeding: Phase 2 orthopedic surgery studies and with antiplatelets after an ACS
[13] = target: T1, Factor XI (Homo sapiens, UniProt P03951); assay: FXI clotting activity (FXI:c), AXIOMATIC-TKR Phase II; assay type: in vivo; settings: enoxaparin 40 mg QD sc
T1 construct: aPTT one-stage clotting with FXI-deficient plasma
T1 sequence (P03951 19-625): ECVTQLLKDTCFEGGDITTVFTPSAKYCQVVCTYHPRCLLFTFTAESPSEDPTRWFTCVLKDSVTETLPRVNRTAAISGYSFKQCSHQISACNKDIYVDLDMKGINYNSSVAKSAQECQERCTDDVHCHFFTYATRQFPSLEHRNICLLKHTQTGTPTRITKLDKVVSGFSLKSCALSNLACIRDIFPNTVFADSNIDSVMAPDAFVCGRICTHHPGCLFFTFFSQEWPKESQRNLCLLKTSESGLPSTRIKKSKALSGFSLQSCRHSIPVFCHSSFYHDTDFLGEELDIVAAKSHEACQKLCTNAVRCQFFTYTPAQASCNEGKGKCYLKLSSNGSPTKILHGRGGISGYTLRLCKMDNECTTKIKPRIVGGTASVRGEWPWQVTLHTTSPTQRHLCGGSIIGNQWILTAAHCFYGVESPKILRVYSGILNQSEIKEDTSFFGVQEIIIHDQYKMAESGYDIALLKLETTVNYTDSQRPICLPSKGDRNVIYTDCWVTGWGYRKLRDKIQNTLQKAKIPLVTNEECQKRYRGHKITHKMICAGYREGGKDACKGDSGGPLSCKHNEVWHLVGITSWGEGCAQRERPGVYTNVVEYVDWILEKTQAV
Procedure: As used herein, “Factor XI Clotting Activity” is determined utilizing an aPTT-based 1-stage clotting time assay. Serial dilutions of normal pooled plasma are mixed with FXI-depleted plasma and the clotting times are measured according to standard aPTT protocol, to establish a reference range. Subject test plasma is treated in the same way and compared with the reference plasma.
In some embodiments, the Factor XI Clotting Activity is measured as follows: Factor XI (FXI) activity is measured using a modification of the activated partial thromboplastin time (aPTT) using Actin FS (Siemens Healthcare) on the Siemens BCS®XP analyzer. […] The reference standard, at approximately 100%, is diluted by the BCS®XP analyzer in saline to generate pre-selected calibration levels of FXI. The calibration curve is plotted with FXI activity in percent (%) on the x-axis and clotting time in seconds on the y-axis. A log/lin regression curve fit is used. […] APTT reagent (Actin FS) is added and the mixture is incubated. Following incubation, calcium chloride is added to the mixture and the time to clot formation (measured optically) is compared to the time on the calibration curve. Samples are tested at the base dilution (1:10) prepared by the BCS®XP in saline.
as §2, §1

[14] = 100 mg BID on top of standard care antiplatelet therapy

COc1c(N2C[C@@H]3CCCN[C@@H]3C2)c(F)cc2c(=O)c(C(=O)O)cn(C3CC3)c12 [moxifloxacin]
assay sensitivity (positive control) ([1]; single 400 mg dose): demonstrated | participants with treatment-emergent change from baseline of QTcB>60 ms ([1]; single 400 mg dose, one participant): 1.7%

C[C@@H]1CCC[C@H](n2cnc(-c3cc(Cl)ccc3-n3cc(Cl)nn3)cc2=O)c2cc(ccn2)-c2c(cnn2C(F)F)NC1=O [Milvexian, (5R,9S)-9-(4-(5-chloro-2-(4-chloro-1H-1,2,3-triazol-1-yl)phenyl)-6-oxopyrimidin-1 (6H)-yl)-2^1-(difluoromethyl)-5-methyl-2^1H-3-aza-1 (4,2)-pyridina-2 (5,4)-pyrazolacyclonaphan-4-one]
median Tmax ([2]; healthy volunteers, twice daily): approximately 3 hours | terminal plasma half-life (T1/2) ([2]; human, oral): 13 to 16 h | serious bleeding assessed as adverse drug reactions [3]: gastrointestinal bleeding, procedural hemorrhage, nervous system disorder bleeding (hemorrhagic transformation of ischemic stroke and subdural hematoma) and hematuria | lag time dose dependence ([4]; 25-200 mg QD/BID): dose related prolongation in the lag time | peak thrombin and area under the curve (total thrombin generation) ([4]; 25-200 mg QD/BID): dose related reductions in peak thrombin and area under the curve | peak thrombin generation dose dependence ([4]; 25-200 mg QD/BID): clear and robust dose dependent reduction in peak thrombin generation | steady state Cmax, mean (std) ([5]; 100 mg BID as monotherapy): 1760 (566) ng/ml | steady state AUC0-24, mean (std) ([5]; 100 mg BID as monotherapy): 36200 (12900) ng*h/mL | steady state Cmax, mean (std) [5, 14]: 1670 (536) ng/mL | steady state AUC0-24, mean (std) [5, 14]: 35000 (12100) ng*h/mL | VTE reduction versus enoxaparin ([6]; 50 mg twice daily): superior to enoxaparin | VTE prevention versus enoxaparin 40 mg once daily ([6]; 50-200 mg twice daily): superior to enoxaparin 40 mg once daily | reduction in total VTE versus enoxaparin ([6]; each total daily dose regimen ≥100 mg): statistically significant reductions in total VTE compared to enoxaparin | ΔΔQTcF, highest upper limit of 2-sided 90% CI ([1]; 100 mg milvexian): 5.16 ms | ΔΔQTcF at milvexian Tmax, upper limit of 90% CI ([1]; 100 mg twice daily): below 10 ms | ΔΔQTcF, highest upper limit of 2-sided 90% CI ([1]; 200 mg milvexian): 4.57 ms | ΔΔQTcF at milvexian Tmax, upper limit of 90% CI ([1]; 200 mg twice daily): below 10 ms | safety and tolerability ([1]; multiple doses of 100 and 200 mg, healthy adults): generally safe and well tolerated | QT/QTc interval prolongation ([1]; therapeutic (100 mg) and supratherapeutic (200 mg) doses): does not show evidence of QT/QTc interval prolongation of clinical or regulatory concern | rate of major bleeding versus placebo ([7]; 25 mg once daily and twice daily): the same as for placebo | major bleeding (BARC Type 3/5) ([7]; 50 mg twice daily and above): Moderate increases in major bleeding | renal serious and non-serious adverse events leading to discontinuation ([7]; 200 mg twice daily): higher rate | study drug discontinuations for adverse events ([7]; 200 mg twice daily): highest rate of study drug discontinuations for adverse events | ISTH major and CRNM bleeding, and all bleeding ([7]; all milvexian doses): increases in ISTH major and CRNM bleeding (mainly driven by CRNM), as well as all bleeding | intracranial haemorrhage or symptomatic haemorrhagic transformation of brain infarction (modified BARC type 3c) versus placebo ([7]; all milvexian doses): no increase | fatal bleeding (BARC type 5) ([7]; in the study): no fatal bleeding | dose-response for major bleeding ([7]; main composite safety endpoint): no significant dose-response | incidence of major bleeding ([7]; trial population): 1-2% | dose-response for primary composite efficacy endpoint ([8]; 25 mg QD to 200 mg BID, symptomatic ischaemic stroke and incident covert brain infarction): no significant dose-response | symptomatic ischaemic strokes ([8]; all doses except 200 mg BID, pre-specified secondary analysis): numerically fewer symptomatic ischaemic strokes | incident covert brain infarcts versus placebo ([8]; milvexian doses): no effect compared to placebo | fatal bleeding ([9]; AXIOMATIC-TKR / AXIOMATIC-SSP): No fatal bleeding | symptomatic intracranial hemorrhage ([9]; AXIOMATIC-TKR / AXIOMATIC-SSP): no increases in symptomatic intracranial hemorrhage | dose-response for bleeding events ([9]; AXIOMATIC-TKR and AXIOMATIC-SSP): No dose-response relationship | Tmax ([10]; Day 4, 25 mg twice daily): approximately 2 hours | Tmax ([10]; Day 4, 50 mg once daily): approximately 4 hours | Tmax ([10]; human, in vivo, po, 100 mg): ~2 h | Tmax ([10]; human, in vivo, po, 200 mg): ~4 h | observed concentration, Day 4 12 hours after dosing ([10]; in vivo): higher | observed concentration, Day 7 12 hours after dosing ([10]; in vivo): lower | time to steady state of mean trough plasma concentrations ([10]; in vivo): approximately 4 Day | aPTT dose dependence ([11]; 25-200 mg QD/BID): dose related increase in aPTT

O=C(NC[C@H]1CN(c2ccc(N3CCOCC3=O)cc2)C(=O)O1)c1ccc(Cl)s1 [rivaroxaban]
VTE prevention versus enoxaparin 40 mg once daily ([12]; 10 mg once daily): superior to enoxaparin 40 mg once daily | bleeding [12]: dose-related bleeding

enoxaparin
ETP Lag Time, measured value, median ([4]; Day 1 2 h): 7.02 min | ETP Peak Height, measured value, mean ([4]; Day 1 2 h): 171.15 nmol/L | ETP Lag Time, measured value, mean ([4]; Day 1 4 h): 8.39 min | ETP Lag Time, measured value, median ([4]; Day 1 4 h): 6.83 min | ETP Peak Height, measured value, mean ([4]; Day 1 4 h): 183.54 nmol/L | ETP Peak Height, measured value, median ([4]; Day 1 4 h): 160.49 nmol/L | ETP Lag Time, measured value, mean ([4]; Day 2 Predose): 6.98 min | ETP Lag Time, measured value, median ([4]; Day 2 Predose): 5.7 min | ETP Peak Height, measured value, mean ([4]; Day 2 Predose): 232.14 nmol/L | ETP Peak Height, measured value, median ([4]; Day 2 Predose): 214.37 nmol/L | ETP Lag Time, measured value, mean ([4]; Day 4 4 h): 8.16 min | ETP Lag Time, measured value, median ([4]; Day 4 4 h): 7.44 min | ETP Peak Height, measured value, mean ([4]; Day 4 4 h): 210.21 nmol/L | ETP Peak Height, measured value, median ([4]; Day 4 4 h): 196.02 nmol/L | ETP Lag Time, measured value, mean ([4]; Day 4 Predose): 7.44 min | ETP Lag Time, measured value, median ([4]; Day 4 Predose): 5.96 min | ETP Peak Height, measured value, mean ([4]; Day 4 Predose): 250.47 nmol/L | ETP Peak Height, measured value, median ([4]; Day 4 Predose): 227.87 nmol/L | ETP Lag Time, measured value, mean ([4]; Day 10-14): 11.18 min | ETP Lag Time, measured value, median ([4]; Day 10-14): 8.11 min | ETP Peak Height, measured value, mean ([4]; Day 10-14): 213.56 nmol/L | ETP Peak Height, measured value, median ([4]; Day 10-14): 201.82 nmol/L | FXI:c, % change from baseline, mean ([13]; Day 1 4 h): −7.24% | FXI:c, % change from baseline, median ([13]; Day 1 4 h): −7.24% | FXI:c, measured value, mean ([13]; Day 1 4 h): 1.06 | FXI:c, measured value, median ([13]; Day 1 4 h): 1.07 | FXI:c, % change from baseline, mean ([13]; Day 10-14): 36.64% | FXI:c, % change from baseline, median ([13]; Day 10-14): 37.21% | FXI:c, measured value, mean ([13]; Day 10-14): 1.36 | FXI:c, measured value, median ([13]; Day 10-14): 1.39 | total VTE rate ([6]; enoxaparin 40 mg once daily): 21.4% | aPTT, measured value, median ([11]; Day 1 2 h): 27.5 s | aPTT, measured value, median ([11]; Day 1 4 h): 27.75 s | aPTT, measured value, median ([11]; Day 2 Predose): 27.4 s | aPTT, measured value, median ([11]; Day 4 4 h): 26.1 s | aPTT, measured value, median ([11]; Day 4 Predose): 25.8 s | aPTT, measured value, median ([11]; Day 10-14): 25.9 s

COc1ccc(-n2nc(C(N)=O)c3c2C(=O)N(c2ccc(N4CCCCC4=O)cc2)CC3)cc1 [apixaban]
VTE prevention versus enoxaparin 40 mg once daily ([12]; 2.5 mg twice daily): superior to enoxaparin 40 mg once daily | bleeding [12]: dose-related bleeding
